In patent EP1025114B1, “3'-N-MODIFIED 6-O-SUBSTITUTED ERYTHROMYCIN KETOLIDE DERIVATIVES HAVING ANTIBACTERIAL ACTIVITY” (priority 1997, dated 1999):

What was measured:
Experiment in all cases: In vitro antibacterial activity, agar dilution MIC
Type in all cases: cell-based
[1] = tested on: Streptococcus pyogenes PIU 2548; settings: Streptococcus pyogenes PIU 2548 (organism code NN); BHI agar, 35-37 °C, 20 to 24 hours; unit assumed
Protocol: (§1) Representative compounds of the present invention were assayed in vitro for antibacterial activity as follows: Twelve petri dishes containing successive aqueous dilutions of the test compound mixed with 10 mL of sterilized Brain Heart infusion (BHI) agar (Difco 0418-01-5) were prepared. Each plate was inoculated with 1:100 (or 1:10 for slow-growing strains, such as Micrococcus and Streptococcus) dilutions of up to 32 different microorganisms, using a Steers replicator block. […] In addition, a control plate, using BHI agar containing no test compound, was prepared and incubated at the beginning and end of each test.
(§2) An additional plate containing a compound having known susceptibility patterns for the organisms being tested and belonging to the same antibiotic class as the test compound was also prepared and incubated as a further control, as well as to provide test-to-test comparability.
(§3) After incubation, each plate was visually inspected. The minimum inhibitory concentration (MIC) was defined as the lowest concentration of drug yielding no growth, a slight haze, or sparsely isolated colonies on the inoculum spot as compared to the growth control.

[2] = tested on: Staphylococcus aureus NCTC10649M; settings: Staphylococcus aureus NCTC10649M (organism code EE); BHI agar, 35-37 °C, 20 to 24 hours; unit assumed
Protocol: as §1, §2, §3

Escherichia coli SS = Escherichia coli SS (organism code RR); BHI agar, 35-37 °C, 20 to 24 hours; unit assumed
Protocol: as §1, §2, §3

[3] = tested on: Staphylococcus aureus A5177; settings: Staphylococcus aureus A5177 (organism code BB); BHI agar, 35-37 °C, 20 to 24 hours; unit assumed
Protocol: as §1, §2, §3

[4] = tested on: Enterococcus faecium ATCC 8043; settings: Enterococcus faecium ATCC 8043 (organism code II); BHI agar, 35-37 °C, 20 to 24 hours; unit assumed
Protocol: as §1, §2, §3

[5] = tested on: Nocardia Asteroides ATCC9970; settings: Nocardia Asteroides ATCC9970 (organism code VV); BHI agar, 35-37 °C, 20 to 24 hours; unit assumed
Protocol: as §1, §2, §3

[6] = tested on: Streptococcus Pheumoniae 5979; settings: Streptococcus Pheumoniae 5979 (organism code ZZ); BHI agar, 35-37 °C, 20 to 24 hours; unit assumed
Protocol: as §1, §2, §3

[7] = tested on: Staphylococcus aureus 1775; settings: Staphylococcus aureus 1775 (organism code GG); BHI agar, 35-37 °C, 20 to 24 hours; unit assumed
Protocol: as §1, §2, §3

[8] = tested on: Staphylococcus epidermidis 3519; settings: Staphylococcus epidermidis 3519 (organism code HH); BHI agar, 35-37 °C, 20 to 24 hours; unit assumed
Protocol: as §1, §2, §3

[9] = tested on: Staphylococcus aureus ATCC 6538P; settings: Staphylococcus aureus ATCC 6538P (organism code AA); BHI agar, 35-37 °C, 20 to 24 hours; unit assumed
Protocol: as §1, §2, §3

[10] = tested on: Streptococcus Pheumoniae GYR 1171; settings: Streptococcus Pheumoniae GYR 1171 (organism code YY); BHI agar, 35-37 °C, 20 to 24 hours; unit assumed
Protocol: as §1, §2, §3

Candida albicans CCH 442 = Candida albicans CCH 442 (organism code TT); BHI agar, 35-37 °C, 20 to 24 hours; unit assumed
Protocol: as §1, §2, §3

[11] = tested on: Micrococcus luteus ATCC 4698; settings: Micrococcus luteus ATCC 4698 (organism code PP); BHI agar, 35-37 °C, 20 to 24 hours; unit assumed
Protocol: as §1, §2, §3

[12] = tested on: Staphylococcus aureus A-5278; settings: Staphylococcus aureus A-5278 (organism code CC); BHI agar, 35-37 °C, 20 to 24 hours; unit assumed
Protocol: as §1, §2, §3

[13] = tested on: Streptococcus pyogenes 930; settings: Streptococcus pyogenes 930 (organism code MM); BHI agar, 35-37 °C, 20 to 24 hours; unit assumed
Protocol: as §1, §2, §3

[14] = tested on: Haemophilis Influenzae DILL AMP R; settings: Haemophilis Influenzae DILL AMP R (organism code WW); BHI agar, 35-37 °C, 20 to 24 hours; unit assumed
Protocol: as §1, §2, §3

[15] = tested on: Streptococcus agalactiae CMX 508; settings: Streptococcus agalactiae CMX 508 (organism code KK); BHI agar, 35-37 °C, 20 to 24 hours; unit assumed
Protocol: as §1, §2, §3

[16] = tested on: Streptococcus bovis A-5169; settings: Streptococcus bovis A-5169 (organism code JJ); BHI agar, 35-37 °C, 20 to 24 hours; unit assumed
Protocol: as §1, §2, §3

[17] = tested on: Streptococcus pyogenes EES61; settings: Streptococcus pyogenes EES61 (organism code LL); BHI agar, 35-37 °C, 20 to 24 hours; unit assumed
Protocol: as §1, §2, §3

[18] = tested on: Mycobacterium smegmatis ATCC 114; settings: Mycobacterium smegmatis ATCC 114 (organism code UU); BHI agar, 35-37 °C, 20 to 24 hours; unit assumed
Protocol: as §1, §2, §3

Escherichia coli DC-2 = Escherichia coli DC-2 (organism code SS); BHI agar, 35-37 °C, 20 to 24 hours; unit assumed
Protocol: as §1, §2, §3

Escherichia coli JUHL = Escherichia coli JUHL (organism code QQ); BHI agar, 35-37 °C, 20 to 24 hours; unit assumed
Protocol: as §1, §2, §3

[19] = tested on: Streptococcus Pheumoniae 5649; settings: Streptococcus Pheumoniae 5649 (organism code ZZA); BHI agar, 35-37 °C, 20 to 24 hours; unit assumed
Protocol: as §1, §2, §3

[20] = tested on: Staphylococcus aureus CMX 553; settings: Staphylococcus aureus CMX 553 (organism code FF); BHI agar, 35-37 °C, 20 to 24 hours; unit assumed
Protocol: as §1, §2, §3

[21] = tested on: Streptococcus Pheumoniae ATCC6303; settings: Streptococcus Pheumoniae ATCC6303 (organism code XX); BHI agar, 35-37 °C, 20 to 24 hours; unit assumed
Protocol: as §1, §2, §3

[22] = tested on: Staphylococcus aureus CMX 642A; settings: Staphylococcus aureus CMX 642A (organism code DD); BHI agar, 35-37 °C, 20 to 24 hours; unit assumed
Protocol: as §1, §2, §3

[23] = tested on: Micrococcus luteus ATCC 9341; settings: Micrococcus luteus ATCC 9341 (organism code OO); BHI agar, 35-37 °C, 20 to 24 hours; unit assumed
Protocol: as §1, §2, §3

SMILES	MIC [1]	MIC [2]	MIC (Escherichia coli SS)	MIC [3]	MIC [4]	MIC [5]	MIC [6]	MIC [7]	MIC [8]	MIC [9]	MIC [10]	MIC (Candida albicans CCH 442)	MIC [11]	MIC [12]	MIC [15]	MIC [16]	MIC [17]	MIC [18]	MIC (Escherichia coli DC-2)	MIC (Escherichia coli JUHL)	other results
CC[C@H]1OC(=O)[C@H](C)C(=O)[C@H](C)[C@@H](O[C@@H]2O[C@H](C)C[C@H](NC)[C@H]2O)[C@](C)(OCC=Cc2cnc3ccccc3c2)C[C@@H](C)C(=O)[C@H](C)[C@H]2NC(=O)O[C@@]21C [Example 3, Compound of Formula (II); R is -CH2CH=CH-(3-quinolyl), R^p is H, W is absent, R^w is H, R^1 is H, R^2 is CH3-]	0.39 µg/mL	0.39 µg/mL	0.78 µg/mL	0.2 µg/mL	0.2 µg/mL	3.1 µg/mL	> 128 µg/mL	> 100 µg/mL	0.39 µg/mL	0.2 µg/mL	0.03 µg/mL	> 100 µg/mL	0.1 µg/mL	> 100 µg/mL	0.02 µg/mL	0.01 µg/mL	0.01 µg/mL	12.5 µg/mL	> 100 µg/mL	> 100 µg/mL	MIC [13]: 12.5 µg/mL; MIC [14]: 16 µg/mL; MIC [19]: 0.5 µg/mL; MIC [20]: 0.39 µg/mL; MIC [21]: 0.03 µg/mL; MIC [22]: 0.39 µg/mL; MIC [23]: 0.02 µg/mL
C=C(CN(C)[C@H]1C[C@@H](C)O[C@@H](O[C@@H]2[C@@H](C)C(=O)[C@@H](C)C(=O)O[C@H](CC)[C@@]3(C)OC(=O)N[C@@H]3[C@@H](C)C(=O)[C@H](C)C[C@@]2(C)OCC=Cc2cnc3ccccc3c2)[C@@H]1O)C(=O)OC [Example 18, Compound of Formula (II); R is -CH2CH=CH-(3-quinolyl), R^p is H, W is absent, R^w is H, R^1 is CH2C(=CH2)C(O)OCH3, R^2 is CH3]	0.39 µg/mL	0.39 µg/mL	0.78 µg/mL	0.39 µg/mL	0.1 µg/mL	0.2 µg/mL	128 µg/mL	> 100 µg/mL	0.39 µg/mL	0.39 µg/mL	≤ 0.004 µg/mL	> 100 µg/mL	0.39 µg/mL	> 100 µg/mL	0.02 µg/mL	0.02 µg/mL	0.05 µg/mL	6.2 µg/mL	> 100 µg/mL	> 100 µg/mL	MIC [13]: 25 µg/mL; MIC [14]: 16 µg/mL; MIC [19]: 0.5 µg/mL; MIC [20]: 0.39 µg/mL; MIC [21]: ≤ 0.004 µg/mL; MIC [22]: 0.39 µg/mL; MIC [23]: 0.02 µg/mL
CC[C@H]1OC(=O)[C@H](C)C(=O)[C@H](C)[C@@H](O[C@@H]2O[C@H](C)C[C@H](N(C)C3CC3)[C@H]2O)[C@](C)(OCC=Cc2cnc3ccccc3c2)C[C@@H](C)C(=O)[C@H](C)[C@H]2NC(=O)O[C@@]21C [Example 20, Compound of Formula (II); R is -CH2CH=CH-(3-quinolyl), R^p is H, W is absent, R^w is H, R^1 is cyclo-C3H5, R^2 is CH3]	0.39 µg/mL	3.1 µg/mL	3.1 µg/mL	3.1 µg/mL	0.39 µg/mL	3.1 µg/mL	16 µg/mL	> 100 µg/mL	3.1 µg/mL	1.56 µg/mL	0.03 µg/mL	> 100 µg/mL	0.78 µg/mL	> 100 µg/mL	0.2 µg/mL	0.2 µg/mL	0.1 µg/mL	3.1 µg/mL	> 100 µg/mL	> 100 µg/mL	MIC [13]: > 100 µg/mL; MIC [14]: 64 µg/mL; MIC [19]: 0.25 µg/mL; MIC [20]: 1.56 µg/mL; MIC [21]: 0.03 µg/mL; MIC [22]: 1.56 µg/mL; MIC [23]: 0.39 µg/mL
CC[C@H]1OC(=O)[C@H](C)C(=O)[C@H](C)[C@@H](O[C@@H]2O[C@H](C)C[C@H](N(C)C(C)=O)[C@H]2O)[C@](C)(OCC=Cc2cnc3ccccc3c2)C[C@@H](C)C(=O)[C@H](C)[C@H]2NC(=O)O[C@@]21C [Example 4, Compound of Formula (II); R is -CH2CH=CH-(3-quinolyl), R^P is H, W is absent, R^w is H, R^1 is acetyl, R^2 is CH3-]	1.56 µg/mL	6.2 µg/mL	100 µg/mL	6.2 µg/mL	1.56 µg/mL	12.5 µg/mL	128 µg/mL	> 100 µg/mL	6.2 µg/mL	6.2 µg/mL	0.125 µg/mL	> 100 µg/mL	3.1 µg/mL	> 100 µg/mL	0.39 µg/mL	0.2 µg/mL	0.39 µg/mL	25 µg/mL	> 100 µg/mL	> 100 µg/mL	MIC [14]: > 128 µg/mL; MIC [19]: 0.25 µg/mL; MIC [20]: 6.2 µg/mL; MIC [21]: 0.25 µg/mL; MIC [22]: 6.2 µg/mL; MIC [23]: 0.39 µg/mL
CC[C@H]1OC(=O)[C@H](C)C(=O)[C@H](C)[C@@H](O[C@@H]2O[C@H](C)C[C@H](N(C)Cc3cccnc3)[C@H]2O)[C@](C)(OCC=Cc2cnc3ccccc3c2)C[C@@H](C)C(=O)[C@H](C)[C@H]2NC(=O)O[C@@]21C [Example 14, Compound of Formula (II); R is -CH2CH=CH-(3-quinolyl), R^p is H, W is absent, R^w is H, R^1 is CH2-(3-pyridyl), R^2 is CH3]	0.39 µg/mL	0.39 µg/mL	0.78 µg/mL	0.39 µg/mL	0.05 µg/mL	0.2 µg/mL	> 128 µg/mL	> 100 µg/mL	0.39 µg/mL	0.39 µg/mL	0.03 µg/mL	> 100 µg/mL	0.39 µg/mL	> 100 µg/mL	0.2 µg/mL	0.05 µg/mL	0.05 µg/mL	0.39 µg/mL	> 100 µg/mL	> 100 µg/mL	MIC [13]: 50 µg/mL; MIC [19]: 0.25 µg/mL; MIC [20]: 0.39 µg/mL; MIC [21]: 0.03 µg/mL; MIC [22]: 0.39 µg/mL; MIC [23]: 0.05 µg/mL
